Experimental data taken from patent publication US6340698B1, “Antifungal solutions” (priority 1999, dated 2002).

Tests used:
Format in all cases: physicochemical
Solubility in water = assay: Solubility in water
[1] = Solubility in strong acids (glacial acetic acid, concentrated hydrochloric acid)
Source text: For example, 1 g of free itraconazole can be dissolved in about 3 g of glacial acetic acid or about 3 to 4 g of concentrated hydrochloric acid (i.e. 36-38% HCl in water).

[2] = Dilution with water of a solution in strong acid; settings: solution in strong acid diluted with water to weaken the acid
Protocol: However, strongly acidic solutions are unsuitable for oral administration, and if a solution of itraconazole or saperconazole in strong acid is diluted with water to weaken the acid, the itraconazole or saperconazole precipitates.

| SMILES | solubility in water (Solubility in water) | solubility in strong acids [1] | behaviour when solution in strong acid is diluted with water [2] |
| --- | --- | --- | --- |
| CCC(C)n1ncn(-c2ccc(N3CCN(c4ccc(OCC5COC(Cn6cncn6)(c6ccc(Cl)cc6Cl)O5)cc4)CC3)cc2)c1=O (centres unmarked) [itraconazole, Itraconazole] | practically insoluble in water | soluble in strong acids | – |
| CCC(C)n1ncn(-c2ccc(N3CCN(c4ccc(OC[C@H]5CO[C@](Cn6cncn6)(c6ccc(F)cc6F)O5)cc4)CC3)cc2)c1=O (some centres unmarked) [saperconazole] | practically insoluble in water | soluble in strong acids | precipitates |
